Source: patent US6057371A, “Sigma receptor ligands and the use thereof” (Virginia Commonwealth University, priority 1992, dated 2000)

Target: PCP receptor
Assay: PCP receptor binding, ^3 H-MK-801
Design: species or system rat
Details: Table 4
Procedure: PCP receptor binding assays against ^3 H-MK-801 were conducted as described by Keana et al., Proc. Natl. Acad. Sci (USA) 86: 5631-5635 (1989); Keana et al., Life Sciences 43: 965-973 (1988). For (+) ^3 H-MK-801 binding, 1 nM of radioligand was incubated with about 100 ug of thawed rat brain membrane protein for 4 hr at room temperature. The assays were carried out in 5 mM Tris/acetate and were stopped by rapid filtration through Whatman GF/B or Schleicher & Schuell no. 32 glass fiber filters (presoaked in 0.05% polyethylenamine).

Compound	IC50
c1ccc(CN2CCOC(c3ccccc3)C2)cc1 (stereo not shown) [Compound 35]	> 10000 nM
C[C@H](Cc1ccccc1)NCc1ccccc1 [Compound 6]	> 10000 nM
CC(Cc1cccc2ccccc12)NCCCc1ccccc1 (racemic) [Compound 16, (±) N-[1-(1'-Naphthyl)-2-propyl]-3-phenylpropylamine]	> 10000 nM
CCCN[C@H](C)Cc1ccccc1 [Compound 5]	> 10000 nM
c1ccc(CCCNC2CCc3ccccc3C2)cc1 (stereo not shown) [Compound 31]	> 10000 nM
c1ccc(CCCCN2CCN(c3ccccc3)CC2)cc1 [Compound 48]	> 10000 nM
CC(Cc1ccc2ccccc2c1)NCCCc1ccccc1 (stereo not shown) [Compound 18, N-(3-phenylpropyl)-1-(2-naphthyl)-2-propylamine]	> 10000 nM
CC(Cc1ccc(Br)cc1)NCCCc1ccccc1 (racemic) [Compound 21, (±) N-[1-(4'-Bromophenyl)-2-propyl]-3-phenylpropylamine]	> 10000 nM
FC(F)(F)c1cccc(N2CCN(CCc3ccccc3)CC2)c1 [Compound 37]	> 10000 nM
Clc1ccc(C2=CCN(CCCCc3ccccc3)CC2)cc1 [Compound 38]	> 10000 nM
C[C@H](Cc1ccccc1)NCC#Cc1ccccc1 [Compound 25]	> 10000 nM
CCN[C@H](C)Cc1ccccc1 [Compound 4]	> 10000 nM
CC(NCCCc1ccccc1)C(=O)c1ccccc1 (stereo not shown) [Compound 13]	> 10000 nM
C[C@@H](N)Cc1ccc(I)cc1 [Compound 29]	> 10000 nM
C[C@@H](N)Cc1ccc([N+](=O)[O-])cc1 [Compound 30]	> 10000 nM
c1ccc(CCCNC2Cc3ccccc3C2)cc1 [Compound 14]	> 10000 nM
CN[C@H](C)Cc1ccccc1 [Compound 3]	> 10000 nM
c1ccc(CCCN2CCC(c3ccccc3)CC2)cc1 [Compound 39]	> 10000 nM
CC(Cc1ccccc1)NCC1CC1 (stereo not shown) [Compound 24]	> 10000 nM

Target: T1, sigma-2 binding site (Cavia porcellus, UniProt H0V073)
T1 construct: Guinea pig whole membrane preparations (P2 microsomal fraction); from tissue; host or cells: guinea pig membranes (P2 microsomal fraction), as described by Weber et al; brain inferred from the sister test b489
T1 sequence (H0V073 1-176): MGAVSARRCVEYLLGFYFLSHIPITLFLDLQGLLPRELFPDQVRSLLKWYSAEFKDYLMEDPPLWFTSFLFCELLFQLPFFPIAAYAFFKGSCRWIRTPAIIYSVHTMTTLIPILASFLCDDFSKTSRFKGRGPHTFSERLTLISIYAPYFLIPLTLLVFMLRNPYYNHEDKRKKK
Assay: biochemical
Design: species or system guinea pig
Details: Example 9; read-out: sigma-2 binding affinity
Procedure: For the standard equilibrium assay, the mixtures were incubated for 30 min. at room temperature, then filtered and the radioactivity determined as described above.

Compound	Ki
CC(Cc1cccc2ccccc12)NCCCc1ccccc1 (racemic) [Compound 16, (±) N-[1-(1'-Naphthyl)-2-propyl]-3-phenylpropylamine]	150 nM

Same assay, conditions: Table 10; read-out: SIGMA-2 KI vs. 3H-DTG + PENTAZOCINE MEAN

Compound	Ki
CC(Cc1cccc2ccccc12)NCCCc1ccccc1 (racemic) [Compound 16, (±) N-[1-(1'-Naphthyl)-2-propyl]-3-phenylpropylamine]	152 nM
CC(Cc1ccc2ccccc2c1)NCCCc1ccccc1 (stereo not shown) [Compound 18, N-(3-phenylpropyl)-1-(2-naphthyl)-2-propylamine]	15.1 nM
CC(Cc1ccc(Br)cc1)NCCCc1ccccc1 (racemic) [Compound 21, (±) N-[1-(4'-Bromophenyl)-2-propyl]-3-phenylpropylamine]	39.1 nM

Same assay, conditions: Table 17; read-out: IC50 (nM) at sigma-2

Compound	IC50
CC(Cc1ccc(Br)cc1)NCCCc1ccccc1 (racemic) [Compound 21, (±) N-[1-(4'-Bromophenyl)-2-propyl]-3-phenylpropylamine]	39 nM

Target: T2, 5-HT1A receptor (Rattus norvegicus, UniProt P19327)
T2 sequence (P19327 1-422): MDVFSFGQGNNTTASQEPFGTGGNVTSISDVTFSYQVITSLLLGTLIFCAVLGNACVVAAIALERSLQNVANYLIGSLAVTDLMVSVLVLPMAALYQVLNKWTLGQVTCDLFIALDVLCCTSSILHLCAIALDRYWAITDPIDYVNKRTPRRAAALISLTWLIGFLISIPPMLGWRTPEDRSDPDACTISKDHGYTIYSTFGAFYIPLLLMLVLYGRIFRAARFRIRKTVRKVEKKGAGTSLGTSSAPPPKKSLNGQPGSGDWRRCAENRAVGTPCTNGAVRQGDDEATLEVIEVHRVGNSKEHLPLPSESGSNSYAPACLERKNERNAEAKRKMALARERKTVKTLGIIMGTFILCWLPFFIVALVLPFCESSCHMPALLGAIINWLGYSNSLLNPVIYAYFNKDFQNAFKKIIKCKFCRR
Assay: biochemical
Type: binding
Design: 47: 529-540 (1986); from tissue; host or cells: brain tissue, inferred from the cited method (rat frontal cortex)
Details: Table 5
Procedure: Further sigma receptor binding assays against [^3 H]DTG and 5HT-1A binding assays were conducted according to the procedure outlined in the previous examples.

Compound	Ratio 5-HT1A /σ
c1ccc(CN2CCOC(c3ccccc3)C2)cc1 (stereo not shown) [Compound 35]	40
C[C@H](Cc1ccccc1)NCc1ccccc1 [Compound 6]	31
CCCN[C@H](C)Cc1ccccc1 [Compound 5]	.88
c1ccc(CCCNC2CCc3ccccc3C2)cc1 (stereo not shown) [Compound 31]	.92
c1ccc(CCCCN2CCN(c3ccccc3)CC2)cc1 [Compound 48]	2.3
FC(F)(F)c1cccc(N2CCN(CCc3ccccc3)CC2)c1 [Compound 37]	2.6
Clc1ccc(C2=CCN(CCCCc3ccccc3)CC2)cc1 [Compound 38]	25
C[C@H](Cc1ccccc1)NCC#Cc1ccccc1 [Compound 25]	7.3
CCN[C@H](C)Cc1ccccc1 [Compound 4]	5.9
CC(NCCCc1ccccc1)C(=O)c1ccccc1 (stereo not shown) [Compound 13]	2
C[C@@H](N)Cc1ccc(I)cc1 [Compound 29]	3.1
C[C@@H](N)Cc1ccc([N+](=O)[O-])cc1 [Compound 30]	2.6
c1ccc(CCCNC2Cc3ccccc3C2)cc1 [Compound 14]	5.4
c1ccc(CCCN2CCC(c3ccccc3)CC2)cc1 [Compound 39]	75
CC(Cc1ccccc1)NCC1CC1 (stereo not shown) [Compound 24]	1.4

Same assay, conditions: Table 5; read-out: 5-HT1A IC50

Compound	IC50
c1ccc(CN2CCOC(c3ccccc3)C2)cc1 (stereo not shown) [Compound 35]	10400 nM
C[C@H](Cc1ccccc1)NCc1ccccc1 [Compound 6]	3780 nM
CC(Cc1cccc2ccccc12)NCCCc1ccccc1 (racemic) [Compound 16, (±) N-[1-(1'-Naphthyl)-2-propyl]-3-phenylpropylamine]	44.8 nM
CCCN[C@H](C)Cc1ccccc1 [Compound 5]	1500 nM
c1ccc(CCCNC2CCc3ccccc3C2)cc1 (stereo not shown) [Compound 31]	19.3 nM
c1ccc(CCCCN2CCN(c3ccccc3)CC2)cc1 [Compound 48]	6.3 nM
CC(Cc1ccc2ccccc2c1)NCCCc1ccccc1 (stereo not shown) [Compound 18, N-(3-phenylpropyl)-1-(2-naphthyl)-2-propylamine]	588 nM
CC(Cc1ccc(Br)cc1)NCCCc1ccccc1 (racemic) [Compound 21, (±) N-[1-(4'-Bromophenyl)-2-propyl]-3-phenylpropylamine]	195 nM
FC(F)(F)c1cccc(N2CCN(CCc3ccccc3)CC2)c1 [Compound 37]	20.3 nM
Clc1ccc(C2=CCN(CCCCc3ccccc3)CC2)cc1 [Compound 38]	107 nM
C[C@H](Cc1ccccc1)NCC#Cc1ccccc1 [Compound 25]	753 nM
CCN[C@H](C)Cc1ccccc1 [Compound 4]	4050 nM
CC(NCCCc1ccccc1)C(=O)c1ccccc1 (stereo not shown) [Compound 13]	288 nM
C[C@@H](N)Cc1ccc(I)cc1 [Compound 29]	15500 nM
C[C@@H](N)Cc1ccc([N+](=O)[O-])cc1 [Compound 30]	55000 nM
c1ccc(CCCNC2Cc3ccccc3C2)cc1 [Compound 14]	154 nM
CN[C@H](C)Cc1ccccc1 [Compound 3]	1780 nM
c1ccc(CCCN2CCC(c3ccccc3)CC2)cc1 [Compound 39]	89.6 nM
CC(Cc1ccccc1)NCC1CC1 (stereo not shown) [Compound 24]	956 nM
